What was measured:
Assay in all cases: Cytostatic cell culture assay (GI50), SRB
Format in all cases: cell-based
Settings in all cases: 5 days incubation
A549 = test system: A549
Excerpt: (§1) The assay is based on quantification of cell counts by a colorimetric detection of the cell associated proteins. The assay relies on the ability of sulforhodamine B (SRB) to bind to protein components of cells that have been fixed to tissue-culture plates by trichloroacetic acid (TCA). SRB is a bright-pink aminoxanthene dye with two sulfonic groups that bind to basic amino-acid residues under mild acidic conditions, and dissociate under basic conditions. As the binding of SRB is stoichiometric, the amount of dye extracted from stained cells is directly proportional to the cell mass.
(§2) Cell lines: All cell lines were obtained from ATCC (Manassas, Va.). Cultivation media containing Glutamax, and trypsin were purchased from Invitrogen (Carlsbad, Calif.). Doxorubicin, Clofarabine, TCA and SRB were from Sigma-Aldrich (St. Louis, Mo.). Gemcitabine was obtained from Moravek Biochemicals (Brea, Calif.)
(§3) • 1. Trypsinize the sub-confluent cells, count them, and adjust the cell concentrations according to the cell counts listed in Table 1. • 2. Distribute the cells into the 96-well plates in 150 μL of media. Incubate the plates overnight in humidified CO2 incubator at 37° C. • 3. Fix one plate of each cell line with TCA. Discard the cultivation media from the plates by flicking them gently and add 100 ul cold 10% (vol/vol) TCA to each well. Incubate the plates at 4 degree refrigerator for 1 hour. Discard TCA from the plates by flicking them gently. Rinse plates four times in a washing basin containing tap water. Store the plates at room temperature. These plates represent cell counts on day zero. • 4. Prepare a set of medium solutions containing various concentrations of tested compounds by making 5-fold serial dilutions in 96-well plate. Add 50 μL of the diluted compounds per well. Include controls with untreated cells and cells treated with doxorubicin, clofarabine and gemcitabine. • 5. Incubate the plates for 5 days at 37° C. • 6. Fix the plates with TCA. Discard the cultivation media from the plates by flicking them gently and add 100 ul cold 10% (vol/vol) TCA to each well. Incubate the plates at 4 degree refrigerator for 1 hour. Discard TCA from the plates by flicking them gently. Rinse plates four times in a washing basin containing tap water. • 7. Remove excess water by tapping the plates face down, gently on a paper towel. Allow the plates to air-dry at room temperature. • 8. Add 100 ul of 0.057% SRB solution in 1% (vol/vol) acetic acid to each well of the plates fixed with TCA on day zero and five. Leave at room temperature for 30 minutes. • 9. Flick the plates gently to discard SRB. Rinse the plates four times with 1% (vol/vol) Acetic Acid. • 10. Store the plates at 37 degree incubator to facilitate faster drying. • 11. Once the plates are completely dry, add 200 ul of 10 mM Tris base solution (pH 10.5) to each well. Leave at room temperature for 30 minutes for SRB to solubilize. • 12. Measure the OD at 500 nm in a microplate reader • 13. Calculate the percentage of cell-growth inhibition using the next formula: % of control cell growth=100×(ODsample−mean ODday0)/(ODneg control−mean ODday0)
(§4) For GI50 determination, plot a dose-response curve between the compound concentration and percent of growth inhibition. GI50 values can be derived by fitting dose-response curves using sigmoidal dose response equation.

BT-549 = test system: BT-549
Excerpt: as §1, §2, §3, §4

Du-145 = test system: Du-145
Excerpt: as §1, §2, §3, §4

HCT-116 = test system: HCT-116
Excerpt: as §1, §2, §3, §4

HCT-15 = test system: HCT-15
Excerpt: as §1, §2, §3, §4

Hs-578 = test system: Hs-578
Excerpt: as §1, §2, §3, §4

NCI-H23 = test system: NCI-H23
Excerpt: as §1, §2, §3, §4

PC3 = test system: PC3
Excerpt: as §1, §2, §3, §4

| Structure (SMILES) | GI50 (A549; Homo sapiens, A549, 120 h) | GI50 (BT-549; Homo sapiens, BT-549, 120 h) | GI50 (Du-145; Homo sapiens, DU-145, 120 h) | GI50 (HCT-116; Homo sapiens, HCT-116, 120 h) | GI50 (HCT-15; Homo sapiens, HCT-15, 120 h) | GI50 (Hs-578; Hs578, 120 h) | GI50 (NCI-H23; Homo sapiens, NCI-H23, 120 h) | GI50 (PC3; Homo sapiens, PC-3, 120 h) | GI50 (A549) | GI50 (HCT-116) | GI50 (Hs-578) | GI50 (PC3) | GI50 (BT-549) | GI50 (Du-145) | GI50 (HCT-15) | GI50 (NCI-H23) |
| --- | --- | --- | --- | --- | --- | --- | --- | --- | --- | --- | --- | --- | --- | --- | --- | --- |
| CCCOC(=O)[C@@H]1CCCN1P(=O)(COCCn1cnc2c(OCCC)nc(N)nc21)N1CCC[C@H]1C(=O)OCCC [Example 23] | 317 nM | 7 nM | 1 nM | 28 nM | 2470 nM | 4 nM | 3 nM | 11 nM | – | – | – | – | – | – | – | – |
| CCCCCOc1nc(N)nc2c1ncn2CCOCP(=O)(N[C@@H](C)C(=O)OCC)N[C@@H](C)C(=O)OCC [Example 41] | 195 nM | 301 nM | 1 nM | 133 nM | 6400 nM | 62 nM | 11 nM | 10 nM | – | – | – | – | – | – | – | – |
| Nc1nc(OC2CCCC2)c2ncn(CCOCP(=O)(O)O)c2n1 [Example 10, [2-(2-Amino-6-cyclopentyloxy-purin-9-yl)-ethoxymethyl]-phosphonic acid] | 3060 nM | 2990 nM | 54 nM | 1790 nM | 2380 nM | 2260 nM | 603 nM | 1010 nM | – | – | – | – | – | – | – | – |
| CCOC(=O)[C@@H]1CCCN1P(=O)(COCCn1cnc2c(NC3CC3)nc(N)nc21)N1CCC[C@H]1C(=O)OCC [Example 50] | 3700 nM | 1620 nM | 250 nM | 3070 nM | > 10000 nM | 308 nM | 118 nM | 608 nM | – | – | – | – | – | – | – | – |
| CCCOc1nc(N)nc2c1ncn2CCOCP(=O)(N[C@@H](Cc1ccccc1)C(=O)OCC)N[C@@H](Cc1ccccc1)C(=O)OCC [Example 15] | 81 nM | 102 nM | 3 nM | 18 nM | 1280 nM | 112 nM | 7 nM | 26 nM | – | – | – | – | – | – | – | – |
| CCOC(=O)[C@@H]1CCCC1P(=O)(COCCn1cnc2c(OC3CC3)nc(N)nc21)N1CCC[C@H]1C(=O)OCC (stereo partly shown) [Example 44] | 1250 nM | 16 nM | 3 nM | 154 nM | 9100 nM | 26 nM | 227 nM | 183 nM | – | – | – | – | – | – | – | – |
| CCCOc1nc(N)nc2c1ncn2CCOCP(=O)(Oc1ccc(C#N)cc1)N1CCC[C@H]1C(=O)OCC (stereo partly shown) [Example 63] | 14 nM | 282 nM | 1 nM | 184 nM | 3350 nM | 7 nM | 1 nM | 2 nM | – | – | – | – | – | – | – | – |
| CCCOc1nc(N)nc2c1ncn2CCOCP(=O)(Oc1ccccc1)N1CCC[C@H]1C(=O)OCC (stereo partly shown) [Example 57] | 2420 nM | 1120 nM | 372 nM | 1610 nM | 5200 nM | 1110 nM | 241 nM | 696 nM | – | – | – | – | – | – | – | – |
| CCCCOC(=O)[C@H](C)NP(=O)(COCCn1cnc2c(OCC)nc(N)nc21)N[C@@H](C)C(=O)OCCCC [Example 38] | 17 nM | 53 nM | 1 nM | 12 nM | 799 nM | 20 nM | 2 nM | 2 nM | – | – | – | – | – | – | – | – |
| Nc1nc(NC2CC2)c2ncn(CCOCP(=O)(N3CCC[C@H]3C(=O)OCc3ccccc3)N3CCC[C@H]3C(=O)OCc3ccccc3)c2n1 [Example 51] | 1670 nM | 527 nM | 256 nM | 850 nM | 8500 nM | 96 nM | 263 nM | 214 nM | – | – | – | – | – | – | – | – |
| CC(C)Oc1nc(N)nc2c1ncn2CCOCP(=O)(O)O [Example 3, [2-(2-Amino-6-isopropoxy-purin-9-yl)-ethoxymethyl]-phosphonic acid] | 2980 nM | 2480 nM | 177 nM | 2440 nM | 2530 nM | 2450 nM | 551 nM | 1380 nM | – | – | – | – | – | – | – | – |
| CCCCOC(=O)[C@H](C)NP(=O)(COCCn1cnc2c(OCCC)nc(N)nc21)Oc1ccccc1 (single isomer, unassigned) [Example 52a] | – | 105 nM | 0.3 nM | – | 553 nM | – | 0.9 nM | – | 48 nM | 43 nM | 13 nM | 8 nM | – | – | – | – |
| CCCOc1nc(N)nc2c1ncn2CCOCP(=O)(N[C@@H](C)C(=O)OCC)Oc1ccccc1 (single isomer, unassigned) [Example 53b] | – | – | – | – | – | – | – | – | 647 nM | 329 nM | 177 nM | 180 nM | 564 nM | 14 nM | 2040 nM | 70 nM |
| CCCCOC(=O)[C@H](C)NP(=O)(COCCn1cnc2c(OCCC)nc(N)nc21)N[C@@H](C)C(=O)OCCCC [Example 13] | 52 nM | 61 nM | 2 nM | 13 nM | 1090 nM | 105 nM | 4 nM | 11 nM | – | – | – | – | – | – | – | – |
| CCCOc1nc(N)nc2c1ncn2CCOCP(=O)(N[C@@H](C)C(=O)OC(C)C)Oc1ccccc1 (stereo partly shown) [Example 54] | 317 nM | 1770 nM | 65 nM | 840 nM | 2770 nM | 894 nM | 67 nM | 472 nM | – | – | – | – | – | – | – | – |
| CCOC(=O)[C@H](C)NP(=O)(COCCn1cnc2c(OC)nc(N)nc21)N[C@@H](C)C(=O)OCC [Example 28] | 736 nM | 573 nM | 47 nM | 859 nM | > 10000 nM | 380 nM | 28 nM | 381 nM | – | – | – | – | – | – | – | – |
| CCCOc1nc(N)nc2c1ncn2CCOCP(=O)(Oc1ccccc1)N1CCC[C@H]1C(=O)OCc1ccccc1 (stereo partly shown) [Example 56] | 2130 nM | 1090 nM | 722 nM | 1930 nM | 3860 nM | 1490 nM | 389 nM | 1250 nM | – | – | – | – | – | – | – | – |
